This is an account of results in patent US11331369B2, “Endoparasitic depsipeptides” (Zoetis Services LLC, priority 2017, dated 2022).

The test system of data set [1] is microfilariae of Dirofilaria immitis. The experiment in a line: Dirofilaria immitis, Microfilaria (DiMF) In vitro Assay. Type of data set: cell-based. The note with it: 72 h, read-out: DiMF Minimum Effective Dose (MED), approximately 72 hours incubation, microfilariae assessed for survival or paralysis.
Data set [2] in a line: Canine pharmacokinetic (PK) study, single IV or oral dose. To be noted: dog, in vivo, po, 1 mg/kg.
Data set [3] concerns 4th stage larvae (L4) of Dirofilaria immitis. The experiment in a line: Dirofilaria immitis, L4 Stage (DiL4) In Vitro Assay. Type of data set: cell-based. To be noted: Dirofilaria immitis, 72 h, read-out: DiL4 Minimum Effective Dose (MED), approximately 72 hours incubation; L4 larvae assessed for survival or paralysis.
Data set [4] has as its system third stage larvae of Haemonchus contortus. The experiment in a line: Haemonchus contortus L3 (HcL3) Assay. The class given is cell-based. To be noted: 96 h, read-out: HcL3 Minimum Effective Dose (MED).

Some results are limits rather than exact numbers.

Broadly, the Cmax is the highest concentration seen after dosing. One may read the half-life as the time in which the quantity being followed falls by half. With `CC(C)C[C@H]1C(=O)O[C@H](Cc2ccc(Cn3cc(C4CC4)cn3)cc2)C(=O)N(C)[C@@H](CC(C)C)C(=O)O[C@H](C)C(=O)N(C)[C@@H](CC(C)C)C(=O)O[C@H](Cc2ccc(Cn3cc(C4CC4)cn3)cc2)C(=O)N(C)[C@@H](CC(C)C)C(=O)O[C@H](C)C(=O)N1C` [Example 1b-45, (3S,6R,9S,12R,15S,18R,21S,24R)-6,18-bis(4-((4-cyclopropyl-1H-pyrazol-1-yl)methyl)benzyl)-3,9,15,21-tetraisobutyl-4,10,12,16,22,24-hexamethyl-1,7,13,19-tetraoxa-4,10,16,22-tetraazacyclotetracosan-2,5,8,11,14,17,20,23-octaone], the minimal effective concentration in data set [1] is 0.01 to 0.1 µM. In addition, in data set [2], the Cmax came out at 127 ng/mL and the half-life is 4.33 days.

Regarding `CC(C)C[C@H]1C(=O)O[C@H](Cc2ccc(Cn3cnc(Br)c3)cc2)C(=O)N(C)[C@@H](CC(C)C)C(=O)O[C@H](C)C(=O)N(C)[C@@H](CC(C)C)C(=O)O[C@H](Cc2ccccc2)C(=O)N(C)[C@@H](CC(C)C)C(=O)O[C@H](C)C(=O)N1C` [Example 8-15, (3S,6R,9S,12R,15S,18R,21S,24R)-6-benzyl-18-(4-((4-bromo-1H-imidazol-1-yl)methyl)benzyl)-3,9,15,21-tetraisobutyl-4,10,12,16,22,24-hexamethyl-1,7,13,19-tetraoxa-4,10,16,22-tetraazacyclotetracosan-2,5,8,11,14,17,20,23-octaone], the results for the minimal effective concentration in data set [1], in data set [3] and in data set [4] were 0.001 to 0.01 µM, 0.0001 to 0.001 µM and 1 to 10 µM, respectively.

For the compound `CC(C)C[C@H]1C(=O)O[C@H](Cc2ccc(Cn3cc(C(F)(F)F)ccc3=O)cc2)C(=O)N(C)[C@@H](CC(C)C)C(=O)O[C@H](C)C(=O)N(C)[C@@H](CC(C)C)C(=O)O[C@H](Cc2ccc(Cn3cc(C(F)(F)F)ccc3=O)cc2)C(=O)N(C)[C@@H](CC(C)C)C(=O)O[C@H](C)C(=O)N1C` [Example 9-22, (3S,6R,9S,12R,15S,18R,21S,24R)-3,9,15,21-tetraisobutyl-4,6,10,16,18,22-hexamethyl-12,24-bis(4-((2-oxo-5-(trifluoromethyl)pyridin-1 (2H)-yl)methyl)benzyl)-1,7,13,19-tetraoxa-4,10,16,22-tetraazacyclotetracosan-2,5,8,11,14,17,20,23-octaone], the minimal effective concentration was 0.001 to 0.01 µM in data set [1], 0.001 to 0.01 µM in data set [3] and 1 to 10 µM in data set [4].

For the compound `Cc1ccc(C#N)n1Cc1ccc(C[C@H]2OC(=O)[C@H](CC(C)C)N(C)C(=O)[C@@H](C)OC(=O)[C@H](CC(C)C)N(C)C(=O)[C@@H](Cc3ccc(Cn4c(C)ccc4C#N)cc3)OC(=O)[C@H](CC(C)C)N(C)C(=O)[C@@H](C)OC(=O)[C@H](CC(C)C)N(C)C2=O)cc1` [Example 9-48, 1,1′-(((((2R,5S,8R,11 S,14R,17S,20R,23S)-5,11,17,23-tetraisobutyl-4,8,10,16,20,22-hexamethyl-3,6,9,12,15,18,21,24-octaoxo-1,7,13,19-tetraoxa-4,10,16,22-tetraazacyclotetracosane-2,14-diyl)bis(methylene))bis(4,1-phenylene))bis(methylene))bis(5-methyl-1H-pyrrole-2-carbonitrile)], the minimal effective concentration in data set [1] is 0.001 to 0.01 µM; in data set [3] it was ≤ 0.0001 µM; in data set [4] it was ≤ 1 µM.

Consider `CC(C)C[C@H]1C(=O)O[C@H](Cc2ccc(Cn3ncnc3C(C)(C)C)cc2)C(=O)N(C)[C@@H](CC(C)C)C(=O)O[C@H](C)C(=O)N(C)[C@@H](CC(C)C)C(=O)O[C@H](Cc2ccc(Cn3ncnc3C(C)(C)C)cc2)C(=O)N(C)[C@@H](CC(C)C)C(=O)O[C@H](C)C(=O)N1C` [Example 9-51, (3S,6R,9S,12R,15S,18R,21S,24R)-6,18-bis(4-((5-(tert-butyl)-1H-1,2,4-triazol-1-yl)methyl)benzyl)-3,9,15,21-tetraisobutyl-4,10,12,16,22,24-hexamethyl-1,7,13,19-tetraoxa-4,10,16,22-tetraazacyclotetracosan-2,5,8,11,14,17,20,23-octaone], for which the minimal effective concentration was in the range of 0.001 to 0.01 µM in data set [1], 0.001 to 0.01 µM in data set [3] and 1 to 10 µM in data set [4].

Consider `CC(C)C[C@H]1C(=O)O[C@H](Cc2ccc(Cn3ncnc3C3CCCC3)cc2)C(=O)N(C)[C@@H](CC(C)C)C(=O)O[C@H](C)C(=O)N(C)[C@@H](CC(C)C)C(=O)O[C@H](Cc2ccc(Cn3ncnc3C3CCCC3)cc2)C(=O)N(C)[C@@H](CC(C)C)C(=O)O[C@H](C)C(=O)N1C` [Example 9-52, (3S,6R,9S,12R,15S,18R,21S,24R)-6,18-bis(4-((5-cyclopentyl-1H-1,2,4-triazol-1-yl)methyl)benzyl)-3,9,15,21-tetraisobutyl-4,10,12,16,22,24-hexamethyl-1,7,13,19-tetraoxa-4,10,16,22-tetraazacyclotetracosan-2,5,8,11,14,17,20,23-octaone], for which the minimal effective concentration in data set [1] was 0.001 to 0.01 µM; in data set [3], 0.001 to 0.01 µM; in data set [4], 1 to 10 µM.

Consider `CC(C)Cc1ncnn1Cc1ccc(C[C@H]2OC(=O)[C@H](CC(C)C)N(C)C(=O)[C@@H](C)OC(=O)[C@H](CC(C)C)N(C)C(=O)[C@@H](Cc3ccc(Cn4ncnc4CC(C)C)cc3)OC(=O)[C@H](CC(C)C)N(C)C(=O)[C@@H](C)OC(=O)[C@H](CC(C)C)N(C)C2=O)cc1` [Example 9-53, (3S,6R,9S,12R,15S,18R,21S,24R)-3,9,15,21-tetraisobutyl-6,18-bis(4-((5-isobutyl-1H-1,2,4-triazol-1-yl)methyl)benzyl)-4,10,12,16,22,24-hexamethyl-1,7,13,19-tetraoxa-4,10,16,22-tetraazacyclotetracosan-2,5,8,11,14,17,20,23-octaone], for which the minimal effective concentration in data set [1] lay within 0.001 to 0.01 µM; in data set [3], 0.001 to 0.01 µM; in data set [4] it was 1 to 10 µM.

Regarding `CC(C)C[C@H]1C(=O)O[C@H](Cc2ccc(Cn3ncnc3CC(C)(C)C)cc2)C(=O)N(C)[C@@H](CC(C)C)C(=O)O[C@H](C)C(=O)N(C)[C@@H](CC(C)C)C(=O)O[C@H](Cc2ccc(Cn3ncnc3CC(C)(C)C)cc2)C(=O)N(C)[C@@H](CC(C)C)C(=O)O[C@H](C)C(=O)N1C` [Example 9-56, (3S,6R,9S,12R,15S,18R,21S,24R)-3,9,15,21-tetraisobutyl-4,6,10,16,18,22-hexamethyl-12,24-bis(4-((5-neopentyl-1H-1,2,4-triazol-1-yl)methyl)benzyl)-1,7,13,19-tetraoxa-4,10,16,22-tetraazacyclotetracosan-2,5,8,11,14,17,20,23-octaone], the minimal effective concentration in data set [1] was 0.001 to 0.01 µM; in data set [3] it was 0.001 to 0.01 µM; in data set [4], 1 to 10 µM.

Regarding `Cc1ccc(C#N)n1Cc1ccc(C[C@H]2OC(=O)[C@H](CC(C)C)N(C)C(=O)[C@@H](C)OC(=O)[C@H](CC(C)C)N(C)C(=O)[C@@H](Cc3ccccc3)OC(=O)[C@H](CC(C)C)N(C)C(=O)[C@@H](C)OC(=O)[C@H](CC(C)C)N(C)C2=O)cc1` [Example 10-30, 1-(4-(((2R,5S,8R,11S,14R,17S,20R,23S)-14-benzyl-5,11,17,23-tetraisobutyl-4,8,10,16,20,22-hexamethyl-3,6,9,12,15,18,21,24-octaoxo-1,7,13,19-tetraoxa-4,10,16,22-tetraazacyclotetracosan-2-yl)methyl)benzyl)-5-methyl-1H-pyrrole-2-carbonitrile], the values for the minimal effective concentration in data set [1], in data set [3] and in data set [4] were 0.001 to 0.01 µM, 0.0001 to 0.001 µM and 1 to 10 µM, respectively.
